Here are results for one compound from PMC10418366, “Fighting Celiac Disease: Improvement of pH Stability of Cathepsin L In Vitro by Computational Design” (International Journal of Molecular Sciences, 2023).

This test deals with T1, rTcCathL1 (Tribolium castaneum cathepsin L) (Tribolium castaneum, UniProt D6X519).
T1 construct: gene AUGUSTUS-3.0.2_01950; mature enzyme after autocatalytic processing (pH 4.0, 37 °C) of recombinant proenzyme secreted by Pichia pastoris GS115 (pPICZalphaA); signal peptide and propeptide total 115 residues (stated for the model)
T1 sequence (D6X519 116-328): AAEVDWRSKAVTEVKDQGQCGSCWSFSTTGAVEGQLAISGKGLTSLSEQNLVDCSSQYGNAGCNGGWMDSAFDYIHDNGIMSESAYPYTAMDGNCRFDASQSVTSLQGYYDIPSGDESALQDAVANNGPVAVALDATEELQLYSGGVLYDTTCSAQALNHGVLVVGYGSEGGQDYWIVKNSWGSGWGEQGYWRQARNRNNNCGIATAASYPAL
The test is described as follows: active-site titration with irreversible inhibitor. The note with it: covalent, 37 °C assay with Glp-Phe-Gln-pNA, 6 mM cysteine, 1 mM EDTA. Format: biochemical.

As to `CC(C)C[C@H](NC(=O)[C@H]1O[C@@H]1C(=O)O)C(=O)NCCCCN=C(N)N` [E-64], the “active-site titration with irreversible inhibitor” value is on record as “titration of peptidase active sites with the irreversible inhibitor E-64”.
